# US9127021B2, “Hepatitis C virus inhibitors” (priority 2010, dated 2015)
# Like-named read-outs stand apart in the source and are kept apart here.
# What was measured:
# HCV 1b genotype replicon = assay: HCV genotype 1b replicon assay (qRT-PCR or luciferase); format: cell-based; conditions: Hepatitis C virus
# From the text: HCV replicon cell lines (kindly provided by R. Bartenschlager) isolated from colonies as described by Lohman et al. (Lohman et al. (1999) Science 285: 110-113, expressly incorporated by reference in its entirety) and used for all experiments. The HCV replicon has the nucleic acid sequence set forth in EMBL Accession No.: AJ242651, the coding sequence of which is from nucleotides 1801 to 8406.
# The coding sequence of the published HCV replicon was synthesized and subsequently assembled in a modified plasmid pBR322 (Promega, Madison, Wis.) using standard molecular biology techniques. […]
# EC50 values of single agent compounds were determined by HCV RNA detection using quantitative RT-PCR, according to the manufacturer's instructions, with a TAQMAN® One-Step RT-PCR Master Mix Reagents Kit (Cat#AB 4309169, Applied Biosystems) on an ABI Model 7500 thermocycler. EC50 values of combinations are similarly determined by HCV RNA detection using quantitative RT-PCR. The TAQMAN primers to use for detecting and quantifying HCV RNA obtained from Integrated DNA Technologies. HCV RNA is normalized to GAPDH RNA levels in drug-treated cells, which is detected and quantified using the Human GAPDH Endogenous Control Mix (Applied Biosystems, AB 4310884E). […] Chemical agent cytotoxicity is evaluated using an MTS assay according to the manufacturer's directions (Promega). […]
# HCV 1a genotype replicon = assay: HCV genotype 1a replicon assay (qRT-PCR or luciferase); format: cell-based; conditions: Hepatitis C virus
Compound,EC50 (HCV 1b genotype replicon; read-out: 1b EC50) [nM],EC50 (HCV 1b genotype replicon; read-out: Range (EC50 range against HCV 1b)) [nM],EC50 (HCV 1a genotype replicon; read-out: 1a EC50) [nM],EC50 (HCV 1a genotype replicon; read-out: Range (EC50 range against HCV 1a)) [nM]
COC(=O)N[C@H]1CCCCOCc2cc(-c3ccc4cc(-c5c[nH]c([C@@H]6CCCN6C(=O)[C@@H](NC(=O)OC)C(C)C)n5)ccc4c3)ccc2NC(=O)[C@@H]2CCCN2C1=O [Compound 350],0.05,< 0.1,–,–
COC(=O)N[C@H](C(=O)N1CCC[C@H]1c1nc(-c2ccc(-c3ccc4c(c3)COCCCCO[C@H](C)[C@H](NC(=O)OC)C(=O)N3CCC[C@H]3c3nc-4c[nH]3)cc2)c[nH]1)C(C)C [Compound 346],–,–,2.4,> 1
